{"source": "patent EP0714404B1", "about": "“ANTI-INFLAMMATORY PEPTIDES” (CURATIVE TECHNOLOGIES, INC., priority 1993, dated 1995)", "key": {"neutrophils [1]": {"test_system": "neutrophils", "test": "neutrophil viability, trypan blue exclusion", "assay_type": "cell-based", "details": "FIGURE 3", "description": "In addition, CT-112 (SEQ. ID NO: 1) was not cytotoxic to neutrophils, as determined by viability testing using trypan blue exclusion (FIGURE 3)."}, "[2]": {"test_system": "Arachidonic Acid Induced Myeloperoxidase Activity in Mouse Ear", "test": "myeloperoxidase activity in AA-treated mouse ear tissue (marker for PMNs)", "assay_type": "in vivo, mice", "details": "minipump", "method": "Myeloperoxidase activity in ear tissue was measured as a marker for the presence or absence of polymorphonuclear leukocytes (PMNs) (Barone et al., 1991, J. Neurosci. Res. 29:336-345). After measurement of ear thickness, ears were dissected from the mice and homogenized in 50mM Tris-HCL, pH 7.4 at 4°C to give a 10% (w/v) homogenate. Aliquots of the homogenate were used to determine the amount of myeloperoxidase activity present in the tissue using o-dianisidine (Sigma Chem Co., St. Louis MO) and hydrogen peroxide as substrates and monitoring chromophore generation at 460 nm (Barone et al., 1991, J. Neurosci. Res. 29:336-345)."}, "[3]": {"test_system": "mouse bone marrow polychromatic erythrocyte", "test": "mouse bone marrow polychromatic erythrocyte micronucleus assay", "assay_type": "in vivo", "details": "62.5, 125 and 250 mg/kg; after 24, 48 or 72 hr"}, "Salmonella": {"test_system": "Salmonella", "test": "Salmonella reverse mutation assay", "assay_type": "cell-based", "details": "100-5,000 µg/ml, with or without rat liver microsomal enzyme activation", "description": "The mutagenic potential of CT-112 (SEQ. ID NO: 1) has been assessed."}, "[4]": {"test_system": "collagen-induced arthritis", "assay_type": "in vivo, Mice", "method": "Mice (DBA/1, 10-12 weeks old, Jackson Laboratories) were randomly assigned to one of 3 groups of […]. CT-112 (SEQ. ID NO: 1) was prepared for injection by dissolving in sterile PBS. CT-112 (SEQ. ID NO: 1) was administered daily according to the following schedule: • a) Control animals (0.1 ml of sterile PBS) (7 mice); • b) Low dose CT-112 (0.1 ml sterile PBS containing 0.25 mg CT-112 at 10 mg/kg) (8 mice); and • c) High dose CT-112 (0.1 ml sterile PBS containing 2.5 mg of CT-112 at 100 mg/kg) (8 mice). Three days after initial dosing with CT-112 (SEQ. ID NO: 1), all mice were injected intradermally at the base of the tail with 100 µg of bovine type-II collagen in Freund's complete adjuvant. Mice were monitored daily for the onset of disease, and weighed twice weekly with overall health status noted. Arthritis-affected animals were clinically assessed 5 times per week until 10 weeks post-immunization. Paw measurements were taken 3 times per week. Mice lacking signs of arthritis 10 weeks post-immunization were considered disease-free. All mice were pre-bled prior to the start of the trial, subsequently again at 2 and 4 weeks post-immunization, again at the onset of CIA, and finally at the termination of the study. Sera were separated and stored at -80°C. ELISA assays were performed to determine anti-collagen antibody concentrations. Spleen and lymph nodes were removed at sacrifice, and single cell suspensions prepared therefrom. Mitogen responses to Con A and LPS, as well as antigen-specific responses to type-II collagen, were determined. Appropriate statistical comparisons (Chi square, Student's T-test and non-parametric median comparisons) were performed using SPSS/PC software to assess the influence of CT-112 (SEQ. ID NO: 1) at both low and high doses on the incidence, onset, severity and progression of collagen-induced arthritis, the antibody response to collagen, T-cell and B-cell mitogen responses, and T-cell specific responses to type-II collagen."}, "neutrophils [5]": {"test_system": "neutrophils", "test": "neutrophil chemotaxis to leukotriene B4 (Neuroprobe chambers)", "assay_type": "cell-based", "details": "fluorescence at 530 nm, 1 hr; FIGURE 4", "method": "The ability of CT-112 (SEQ. ID NO: 1) to inhibit chemotaxis of neutrophils in response to a variety of agents was assessed using Neuroprobe chemotaxis chambers. For these assays, neutrophils were resuspended in Hank's balanced salt solution with Ca^2+ and Mg^2+ to give a 5 x 10^6 cells/ml suspension after the cells were labeled with 1',7'-bis(2-carboxyethyl)-5-(6)-carboxyfluorescein. The neutrophils were exposed to CT-112 (SEQ. ID NO: 1) for approximately 15 min prior to addition to the chemotaxis chambers. CT-112 (SEQ. ID NO: 1) was present in both the top and bottom of the chambers, and the chemoattractant, either f-Met-Leu-Phe, leukotriene B4 or interleukin-8, was added to the bottom of chamber. Cells which had migrated through the membrane were determined by fluorescence at 530 nm at 1 hr after initiation of the assay."}, "prostaglandin E2 (PGE2)": {"test_system": "prostaglandin E2 (PGE2)", "test": "carrageenan peritonitis, PGE2 content of peritoneal lavage fluid", "assay_type": "in vivo, Mice", "details": "60 mg/kg/day; 24 hr post-challenge", "method": "(§1) Mice (C57BL/6UAF, females, 12 weeks old) were implanted with Alzet mini pumps set to deliver 60 mg CT-112/kg/day. Six days post-implantation, the mice were challenged with an intraperitoneal injection of 0.3 ml of carrageenan in PBS (10 mg/ml). The peritoneal cavity was lavaged with 15 ml of Hank's Balanced Salt Solution (Ca^2+- and Mg^2+-free) at 24, 48 and 72 hr post-challenge. The lavage fluid was centrifuged (500 g, 5 min), fixed with LeukoStat fixative and stained with LeukoStat staining solution. The slides were analyzed under a microscope for the different types of inflammatory cells, such as macrophages, lymphocytes and neutrophils. At the 48-hr time point, 5 control mice were also lavaged.\n(§2) In a separate study, the peritoneal lavage fluid was analyzed for total leukotriene B4 (LTB4) and prostaglandin E2 (PGE2) content at 24 hr post-challenge (Griswold et al., 1991, Biochem. Pharmacol. 42(4):825-831)."}, "leukotriene B4 (LTB4)": {"test_system": "leukotriene B4 (LTB4)", "test": "carrageenan peritonitis, LTB4 content of peritoneal lavage fluid", "assay_type": "in vivo, Mice", "details": "60 mg/kg/day; 24 hr post-challenge", "method": "as §1, §2"}, "acute toxicity in mice": {"test": "acute toxicity in mice", "assay_type": "in vivo", "details": "intravenous 100, 500 or 1,000 mg/kg", "method": "Acute toxicity of CT-112 (SEQ. ID NO: 1) in mice and rats was assessed. Mice were dosed by intravenous injection with CT-112 (SEQ. ID NO: 1) at 100, 500 or 1,000 mg/kg."}}, "note": "Read-outs that look alike come from different tables or passages of the source. Residues, ends and D or L forms follow the SMILES beside them.", "data": [{"smiles": "CC(C)[C@H](NC(=O)[C@H](CCC(N)=O)NC(=O)[C@H](CO)NC(=O)[C@@H](NC(=O)[C@@H](N)[C@@H](C)O)[C@@H](C)O)C(=O)N[C@@H](CCCNC(=N)N)C(=O)N1CCC[C@H]1C(=O)N[C@@H](CCCNC(=N)N)C(=O)O", "note": "[CT-112, Thr-Thr-Ser-Gln-Val-Arg-Pro-Arg] (H-TTSQVRPR-OH)", "values": [{"measurement": "cytotoxicity to neutrophils, viability", "setting": "neutrophils [1]", "value": "not cytotoxic"}, {"measurement": "Myeloperoxidase Activity", "setting": "[2]; 0.05 mg/animal/day", "value": "19.6 ± 15.6 µmole of chromophore formed/min"}, {"measurement": "Myeloperoxidase Activity", "setting": "[2]; 0.1 mg/animal/day", "value": "17.0 ± 9.6 µmole of chromophore formed/min"}, {"measurement": "Myeloperoxidase Activity", "setting": "[2]; 1.0 mg/animal/day", "value": "14.7 ± 13.3 µmole of chromophore formed/min"}, {"measurement": "micronuclei", "setting": "[3]", "value": "did not induce a significant increase"}, {"measurement": "number of revertants (histidine independent growth)", "setting": "Salmonella", "value": "did not cause an increase"}, {"measurement": "Antibody reduction (anti-collagen antibody titer in mouse serum)", "setting": "[4]; 4 wks post-immunization, high dose group, p=0.028", "value": "statistically significant"}, {"measurement": "effects on synovitis and pannus", "setting": "[4]; both high and low doses", "value": "not significant"}, {"measurement": "disease-induced joint erosion (histopathology)", "setting": "[4]; both high and low doses, FIGURE 13", "value": "reducing"}, {"measurement": "disease-induced loss of joint architecture (histopathology)", "setting": "[4]; both high and low doses, p ≤ 0.05, FIGURE 13", "value": "significantly reducing"}, {"measurement": "Spleen cell response to Con A and to LPS", "setting": "[4]; cells from treated mice", "value": "neither immunosuppression nor immunoactivation"}, {"measurement": "final incidence of CIA", "setting": "[4]; high dose, 100 mg/kg daily", "value": 50, "unit": "%"}, {"measurement": "onset of arthritis", "setting": "[4]; low (10 mg/kg) and high (100 mg/kg) daily doses, compared to control mice", "value": "somewhat retarded"}, {"measurement": "antibody titers at the conclusion of the trial", "setting": "[4]; low dose group vs control mice", "value": "significantly higher"}, {"measurement": "final incidence of CIA", "setting": "[4]; low dose, 10 mg/kg daily", "value": 62.5, "unit": "%"}, {"measurement": "involved paws characterized as in remission at the conclusion of the trial", "setting": "[4]; low dose, 10 mg/kg daily", "value": 25, "unit": "%"}, {"measurement": "progression of arthritis to paws", "setting": "[4]; low dose, 10 mg/kg daily, p=0.035 vs control", "value": "significantly fewer paws"}, {"measurement": "Maximum paw swelling", "setting": "[4]; mouse, in vivo", "value": "not influenced"}, {"measurement": "weight gain", "setting": "[4]; mouse, in vivo", "value": "gained weight at the same rate"}, {"measurement": "Cellular responses to mitogens and antigen (type-II collagen) in lymph node cells", "setting": "[4]; treated mice vs control animals", "value": "similar"}, {"measurement": "chemotactic migration of neutrophils to LTB4", "setting": "neutrophils [5]", "value": "effectively inhibited"}, {"measurement": "PGE2", "setting": "prostaglandin E2 (PGE2)", "value": "13.1 ± 6.9(5) pg in peritoneal lavage"}, {"measurement": "LTB4", "setting": "leukotriene B4 (LTB4)", "value": "16.8 ± 11.5(5) pg in peritoneal lavage"}, {"measurement": "lesions at necropsy", "setting": "acute toxicity in mice", "value": "No lesions were visible"}, {"measurement": "mean body weight or mean body weight gain", "setting": "acute toxicity in mice; control vs treated", "value": "no statistical differences"}, {"measurement": "clinical effects", "setting": "acute toxicity in mice; one mouse at 500 and two at 1,000 mg/kg, day of treatment", "value": "Minimal transient clinical effects (hypoactivity and hypersensitivity)"}]}]}
